Data published in patent US10814010B2, “FOXC2 inhibitor and methods of use thereof” (The Board of Regents of The University of Texas System, priority 2018, dated 2020).

How the values were obtained:
PC3 cells = assay: MTT cell viability assay, PC3; assay type: cell-based
Description: Inhibition of EMT in CRPC could lead to a new form of therapeutics to aid once androgen-independence is achieved. However, in order for MC-1-F2 to be considered an effective chemotherapeutic agent, its EC50 in prostate cancer needed to be determined as well as how it compares to other chemotherapeutic agents on the market and whether it is able to inhibit chemoresistance or lower the sensitivity of CRPC to commercially available drugs. In order to determine the EC50 of MC-1-F2, an MTT assay on cell viability was performed in both DU145 and PC3. […] These doses are higher than those encountered with breast cancer cell lines. This is most likely due to the lower FOXC2 expression levels founds in prostate cell lines when compared to the breast cell lines.
(§1) Cell viability was assessed by MTT (3-(4,5-Dimethylthiazol-2-yl)-2,5-Diphenyltetrazolium Bromide) assay 5,000 cells were seeded on a 96-well cell culture plate and were incubated for at least 24 hours prior to drug treatment. The MTT reagent (Fisher Scientific) was added to the culture medium 3 hours prior to the end of compound incubation. The reaction took place in the 37° C. incubator with 5% CO2 for 3 hours. Cell culture medium was then removed from the wells. Cells with the insoluble purple formazan were lysed with DMSO for 10 mins at room temperature, 200 μL per well. Absorbance was read at 570 nm using a plate reader.

DU145 cells = assay: MTT cell viability assay, DU145; assay type: cell-based; details: single agent
Description: In order to determine the EC50 of MC-1-F2, an MTT assay on cell viability was performed in both DU145 and PC3.
as §1

## CNC(=O)c1ccc(N2C(=S)N(c3ccc(C#N)c(C(F)(F)F)c3)C(=O)C2(C)C)cc1F [Enzalutamide, reference compound]
PC3 cells; single agent
  effect on cell viability: no effect
DU145 cells
  effect on cell viability: no effect

## CC(=O)O[C@@]12CO[C@@H]1C[C@H](O)[C@@]1(C)C(=O)[C@H](O)C3=C(C)[C@@H](OC(=O)[C@H](O)[C@@H](NC(=O)OC(C)(C)C)c4ccccc4)C[C@@](O)([C@@H](OC(=O)c4ccccc4)[C@H]21)C3(C)C [docetaxel]
PC3 cells; Homo sapiens, PC-3, single agent
  EC50: 7.6 nM
